This data set is described as follows: in vitro. The settings on record: human, hela cells, % viability.
On to `COc1ncccc1C(NC(=O)C1CCN(C(=O)OCc2ccccc2)CC1)c1ccccc1C` (stereo not drawn) [CBK076802], for which the viability – broadly, a read-out of living cells in per cent, often relative to untreated cells – at 28.5 h, 10 µM was 90.8%.
Take `O=C(Nc1ccsc1C(=O)O)c1ccc(Cl)cc1` [CBK076902]: the viability at 28.5 h, 10 µM is 96.8%.
`CC(C)(C)OC(=O)N1CCC(CNS(=O)(=O)c2ccc3c(c2)OCCO3)CC1` [CBK076971]: the viability at 28.5 h, 10 µM was found to be 90.6%.
Consider `O=S(=O)(Nc1ccccc1N1CCCCC1)c1ccc(Cl)cc1` [CBK077063], for which the viability at 28.5 h, 10 µM was 100%.
For `CCOC(=O)c1sc(NS(=O)(=O)c2ccc(Cl)c(Cl)c2)nc1C` [CBK077228], the viability at 28.5 h, 10 µM was found to be 92.5%.
With `O=C(O)CCSC(CC(=O)c1ccccc1)c1ccc(Cl)cc1` (stereo not drawn) [CBK077251] the figure was 97.3%; with `COc1ccc(S(=O)(=O)N2CCCCC2C(=O)O)cc1` (stereo not drawn) [CBK077424], 99.5%; with `CCOc1cc(/C=c2/sc3nc(=O)c(Cc4ccccc4)nn3c2=O)ccc1OC(C)=O` [CBK077455], 89.2%.
The value for `Cc1ccc(Cn2ncc3c(NCCCN4CCOCC4)ncnc32)cc1` [CBK077470] was 94.4%; that for `O=C(O)C1CSC(c2cccc(Cl)c2Cl)N1` (stereo not drawn) [CBK077526] was 106%; that for `CC1CCN(c2nc3nonc3nc2Nc2ccc3c(c2)OCO3)CC1` [CBK077551] was 98.8%.
In the case of `OCCNc1ncnc2c1cnn2-c1ccccc1` [CBK077741C], the viability at 28.5 h, 10 µM came out at 81.3%.
With `CCOC(=O)c1ccc(NS(=O)(=O)c2cc(Cl)ccc2Cl)cc1` [CBK077746] the figure was 88.4%.
The value for `COC(=O)C1=C(C)N=c2s/c(=C/c3ccc(OC)c(OC(C)=O)c3)c(=O)n2C1c1cccs1` (stereo not drawn) [CBK077753] was 88.3%; that for `O=C(O)C1Nc2c(Cl)cc(Cl)cc2C2C=CCC12` (stereo not drawn) [CBK077855] was 78.5%.
The value for `O=C(NCc1ccco1)c1ccccc1NS(=O)(=O)c1ccc(Br)s1` [CBK077969] was 79.9%; that for `O=C(O)c1ccc(-c2ccc(/C=C3/NC(=O)N(c4ccc(Cl)cc4)C3=O)o2)cc1` [CBK077970] was 103%.
With `Cc1ccc(C(C)C)c(OCc2ccc(C(=O)O)o2)c1` [CBK078089], the viability at 28.5 h, 10 µM was 108%.
With `CC(=O)Nc1ccc(NCc2cc(Cl)ccc2OCc2ccc(Cl)cc2Cl)cc1` [CBK078179] the figure was 90.8%; with `Cc1ccc(NC(=O)CN2C(=O)S/C(=C/c3ccc(-c4ccc(Cl)c(C(=O)O)c4)o3)C2=O)cc1` [CBK078256], 86.3%.
With `O=C(O)c1ccc(Cl)c(-c2ccc(/C=N/Nc3ccc([N+](=O)[O-])cc3)o2)c1` [CBK078331] the figure was 97.8%; with `CC(C)(C)c1csc(NCc2c(O)ccc3ccccc23)n1` [CBK078381], 92.9%.
With `COc1ccc(C)cc1NS(=O)(=O)c1cc(I)c2occc2c1` [CBK078531] the figure was 72.6%; with `CCC1CCCCN1C(=O)c1oc2ccccc2c1C` (stereo not drawn) [CBK078548], 107%; with `CCC1CCCCN1C(=O)c1cc2ccccc2o1` (stereo not drawn) [CBK078549], 80.1%.
Consider `COc1ccc(C(NC(=O)C2CCC(N)CC2)c2ccccc2C)cn1` (stereo not drawn) [CBK078551], for which the viability at 28.5 h, 10 µM came to 92%.
With `COc1cc([C@@]23CC[C@@H](NC(=O)Nc4cccc(C(F)(F)F)c4F)C[C@@H]2N(C)CC3)ccc1C#N` [CBK078562] the figure was 106%; with `CCCc1c(O)n[nH]c1Cc1ccc(Cl)cc1` [CBK078564], 104%.
With `CCOC(=O)c1sc(-c2ccc3c(c2)OCO3)nc1O` [CBK078565] the figure was 97.2%; with `Cc1ccc2c(c1)CC(=O)NC21CCN(CCc2noc3ccccc23)CC1` [CBK081072], 92.2%; with `Cn1cc(CCO)c2ccccc21` [CBK081087], 109%.
With `CCCc1[nH]nc(O)c1CCc1c(F)cccc1Cl` [CBK081121] the figure was 93.8%; with `CCCc1[nH]nc(O)c1CC1CC1` [CBK081129], 110%.
For the molecule `COc1ccc([C@]23CN(C)C[C@H]2CCN(C(=O)Nc2ccc(Cl)c(F)c2)C3)cc1OC` [CBK081140T], the viability at 28.5 h, 10 µM came to 98.3%.
The value for `Nc1ccc2cc(-c3ccsc3)cnc2n1` [CBK081167] was 101%; that for `Nc1ccc2cc(-c3cccc(OCc4ccccc4)c3)cnc2n1` [CBK081172] was 108%; that for `Nc1cc2cccnc2c(-c2cccc(C(F)(F)F)c2)n1` [CBK081177] was 106%.
With `COc1ccc(C(C)C)cc1-c1nc(N)cc2cccnc12` [CBK081178] the figure was 99.6%.
With `CC(C)(C)c1ccc(-c2cc3ncccc3nc2N)cc1` [CBK081199] the figure was 80.4%; with `COc1ccc(C(C)C)cc1-c1cc2ncccc2nc1N` [CBK081202], 89.3%.
`Nc1c(-c2ccsc2)cnc2cccnc12` [CBK081208]: the viability at 28.5 h, 10 µM worked out at 87.8%.
With `COc1ccc(C(C)C)cc1-c1cnc2nc(N)ccc2c1` [CBK081216] the figure was 97.7%.
For `Nc1cc2cccnc2c(-c2ccsc2)n1` [CBK081218], the viability at 28.5 h, 10 µM amounted to 89.6%.
The value for `CCNC(=O)Nc1cc2cccnc2c(-c2ccsc2)n1` [CBK081226] was 106%.
`CCNC(=O)Nc1nc2cccnc2cc1-c1ccccc1` [CBK081239]: the viability at 28.5 h, 10 µM is 101%.
The value for `CC(C)C(=O)Nc1cc2cccnc2c(-c2ccc3c(c2)CCO3)n1` [CBK081260] was 114%; that for `COc1ccc(C(C)C)cc1-c1cnc2nc(O)ccc2c1` [CBK081286] was 94.1%; that for `CC(C)C(=O)Nc1cc2cccnc2c(-c2ccccc2)n1` [CBK081287] was 92.2%.
The value for `Oc1nc2cccnc2cc1-c1ccc2c(c1)OCCCO2` [CBK081299] was 96%; that for `Oc1ccc2cc(-c3ccc(OC(F)(F)F)cc3)cnc2n1` [CBK081300] was 32.8%; that for `CC(C)(C)c1ccc(-c2cc3ncccc3nc2O)cc1` [CBK081302] was 97.1%.
For the molecule `CCC1CCCCN1C(=O)c1c(Cl)cccc1Cl` (stereo not drawn) [CBK081303], the viability at 28.5 h, 10 µM turned out to be 99.3%.
As for `COc1ccc([C@@]23CC[C@@H](NC(=O)Nc4cccc(Cl)c4)C[C@@H]2CN(C)C3)cc1OC` [CBK081375T], the viability at 28.5 h, 10 µM came to 96.8%.
Turning to `CCCc1[nH]nc(O)c1CCc1c(Cl)cccc1Cl` [CBK081403], the viability at 28.5 h, 10 µM worked out at 112%.
As to `CCC1CCCCN1C(=O)c1sc2ncccc2c1N` (stereo not drawn) [CBK081410], the viability at 28.5 h, 10 µM was 112%.
For the molecule `COc1ccc(CN2CCC(C(=O)NC(c3ccc(OC)nc3)c3ccccc3C)CC2)cc1` (stereo not drawn) [CBK081445T], the viability at 28.5 h, 10 µM came out at 86.7%.
The value for `COc1ccc(C(NC(=O)C2CCN(Cc3ccc(OC)c(OC)c3)CC2)c2ccccc2C)cn1` (stereo not drawn) [CBK081452T] was 99.7%; that for `COC(=O)[C@H](NC(=O)C1CCN(C(=O)OCc2ccccc2)CC1)c1ccccc1` [CBK081466] was 88.1%; that for `COC(=O)[C@@H](NC(=O)C1CCN(C(=O)OCc2ccccc2)CC1)c1ccccc1` [CBK081468] was 107%.
With `COc1ccc(C(NC(=O)N2CCN(C(=O)OCc3ccccc3)CC2)c2ccccc2C)cn1` (stereo not drawn) [CBK081469] the figure was 91.2%; with `Oc1ccc2[nH]c3c(c2c1)CCNC31CCN(CCOc2ccccc2)C1` (stereo not drawn) [CBK081496], 85.9%; with `CCc1ccccc1C(=O)N1CCCCC1CC` (stereo not drawn) [CBK081556], 81.9%.
The value for `CCC1CCCCN1C(=O)c1ccc(C)c(Br)c1` (stereo not drawn) [CBK081559] was 100%; that for `C[N+]1([O-])CCN(c2nccn(CCOc3cc(F)c(F)cc3F)c2=O)CC1` [CBK081593] was 101%; that for `CCC1CCCCN1C(=O)c1cc(C)ccc1F` (stereo not drawn) [CBK082754] was 108%.
For the molecule `Cc1ccc(C(F)(F)F)cc1NS(=O)(=O)c1cc(OC2CCNCC2)c2occc2c1` [CBK082763C], the viability at 28.5 h, 10 µM was 90.1%.
The value for `Clc1ccc(CN2CCN(c3nccnc3OCC3COc4ccccc4O3)CC2)cc1` (stereo not drawn) [CBK082786T] was 101%; that for `FC(F)(F)c1ccc(CN2CCN(c3nccnc3OCC3COc4ccccc4O3)CC2)cc1` (stereo not drawn) [CBK082789T] was 115%.
With `Cc1cccc(C)c1NC(=O)CN1CCN(c2nccnc2OCC2COc3ccccc3O2)CC1` (stereo not drawn) [CBK082801T], the viability at 28.5 h, 10 µM amounted to 88.9%.
With `CCN(CC)C(=O)CN1CCN(c2nccnc2OCC2COc3ccccc3O2)CC1` (stereo not drawn) [CBK082803T], the viability at 28.5 h, 10 µM amounted to 96.5%.
With `COc1ccc(CCN2CCN(c3nccnc3OCC3COc4ccccc4O3)CC2)cc1OC` (stereo not drawn) [CBK082808T] the figure was 104%; with `O=S(=O)(Nc1cc(F)cc(F)c1F)c1cc(OC2CCNCC2)c2occc2c1` [CBK082814C], 83.9%; with `Cc1cccc(C)c1NC(=O)CN1CCN(c2nccnc2OC2CCCCC2)CC1` [CBK082835T], 103%.
As to `CCOC(=O)CN1CCN(c2nccnc2OC2CCCCC2)CC1` [CBK082837T], the viability at 28.5 h, 10 µM is 102%.
With `Clc1ccc(CN2CCC(Oc3nccnc3OC3CCCCC3)CC2)cc1` [CBK082856T], the viability at 28.5 h, 10 µM turned out to be 101%.
The value for `CCOC(=O)CN1CCC(Oc2nccnc2OC2CCCCC2)CC1` [CBK082867T] was 106%.
With `N#CCCCN1CCC(Oc2nccnc2OC2CCCCC2)CC1` [CBK082871T] the figure was 101%; with `CSCCN1CCC(Oc2nccnc2OC2CCCCC2)CC1` [CBK082873T], 97%; with `Clc1ccc(CN2CCN(c3nccnc3OCCN3CCOCC3)CC2)cc1Cl` [CBK082884T], 96.7%.
The value for `Clc1ccc(CN2CCN(c3nccnc3OCCN3CCOCC3)CC2)cc1` [CBK082887T] was 97.4%; that for `FC(F)(F)c1ccc(CN2CCN(c3nccnc3OCCN3CCOCC3)CC2)cc1` [CBK082890T] was 90.8%.

Source of the values: article PMC12040169 (PLOS Biology, 2025).
